Results taken from US20200031811A1, “SUBSTITUTED MONO- AND POLYAZANAPHTHALENE DERIVATIVES AND THEIR USE” (Basilea Pharmaceutica International AG, priority 2015, published 2020).
Counter-ions that a name gives are not always drawn.

Assays:
MNK1 = biological target: T1, MNK1 (Homo sapiens, UniProt Q9BUB5); assay: MNK inhibition assay (Z-Lyte kinase assay, Ser/Thr 7 peptide); type: biochemical; settings: for IC50: recombinant GST-MNK1, 3 hours at 31° C.; for inhibition at 1 µM / inhibition at 10 µM: read-out: Inhibition of MNK1 activity at indicated concentration
T1 construct: purchased Life Technologies or Carna Biosciences PV6023 or 02-145; host or cells: baculovirus infected insect cells
T1 sequence (Q9BUB5 whole entry): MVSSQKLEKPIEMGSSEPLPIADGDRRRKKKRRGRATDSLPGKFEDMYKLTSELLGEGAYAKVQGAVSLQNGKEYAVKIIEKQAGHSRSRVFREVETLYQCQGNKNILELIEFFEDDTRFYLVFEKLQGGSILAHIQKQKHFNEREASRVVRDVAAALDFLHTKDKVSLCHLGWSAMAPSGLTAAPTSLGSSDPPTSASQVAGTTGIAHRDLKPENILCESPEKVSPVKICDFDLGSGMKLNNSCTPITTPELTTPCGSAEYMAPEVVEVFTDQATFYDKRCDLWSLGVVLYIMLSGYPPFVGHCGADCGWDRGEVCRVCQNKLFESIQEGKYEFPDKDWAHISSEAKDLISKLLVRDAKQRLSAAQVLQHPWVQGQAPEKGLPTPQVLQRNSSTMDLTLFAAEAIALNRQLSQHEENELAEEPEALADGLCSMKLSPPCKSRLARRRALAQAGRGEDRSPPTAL
From the text: For the measurement of the activity of the MNK1 kinase the Z-Lyte kinase assay system was used. The kinase activity of MNK1 can be quantified with the Z-Lyte kinase assay kit Ser/Thr 7 peptide (Life Technologies PV3180). The kit was utilized according to the instructions of the provider. A recombinant GST-MNK1 fusion protein produced in and purified from baculovirus infected insect cells was used as enzyme source (GST-MNK1 Life Technologies PV6023 or Carna Biosciences 02-145). It was verified that both sources of the MNK1 enzyme gave similar IC50 values with several compounds. The MNK1 enzyme assay was performed in 384 well round bottom black microtiter plates (Corning 3676). The kinase reaction was performed for 3 hours at 31° C. As instructed by the provider of the kit the amount of enzyme was chosen such that ˜30% of the substrate peptide was phosphorylated in control wells containing buffer only. The MNK1 inhibiting activity of compounds was tested by adding the compounds to the kinase reaction at a concentration of 10000, 5000, 2000, 1000, 500, 200, 100, 50 nM. Compounds with strong MNK1 inhibition were tested at 20, 10, 5, 2, 1 and 0.5 nM in addition. Each compound concentration was tested at least in duplicate. The % phosphorylation of the substrate peptide at each compound concentration was calculated as described in the assay manual. The fluorescent signals were recordes on Biotek Cytation 3 microplate reader. The IC50, the concentration that reduced substrate phosphorylation by 50% if compared to buffer only wells, was calculated with the Grafit 6 software (Erythacus software).

[1] = test system: human pancreatic cancer cell line MiaPaCa2 (ATCC CRL-1420); assay: Cell growth assay (CellTiterGlo, 72 hours); type: cell-based; settings: for IC50: MIA PaCa-2, MiaPaCa2 cells, 72 hours, read-out: IC50 MiaPaCa; for inhibition at 100 µM: MIA PaCa-2, at 100 μM; for inhibition at 100 µM / inhibition at 50 µM: read-out: Inhibition of MiaPaCa growth at indicated concentration; for inhibition at 50 µM: MIA PaCa-2, at 50 μM
Protocol: The inhibition of cell growth by the compounds was tested by exposing the human pancreatic cancer cell line MiaPaCa2 (ATCC CRL-1420) to the compounds. The assay was performed in 384 well clear bottom white microtiter plates (Greiner #781098). Each well was seeded with 10^3 cells in 20 μl of Dulbecco's modified Eagle's medium (Sigma D6796) supplied with 10% fetal calf scrum (Sigma F7524), 2.5% horse serum (Sigma H0146), 1% Penicillin-Streptomycin (Sigma P0781), 1% MEM nonessential amino acid solution 100× (Sigma M71459) and 1% 200 mM L-Glutamine (Sigma G7513) culture medium. After overnight incubation at 37° C. in 5% CO2 the compounds were added in the following concentrations: 100, 50, 20, 10, 5, 2, 1, 0.5, 0.2 and 0.1 μM. Each compound concentration was tested in quadruplicate. The incubation was then continued for 72 hours. After 72 hours the growth of the cells was assessed by the addition of the CellTiterGlo reagent (Promega G9242) as instructed by the provider. The luminescent signal was recorded on a SpectraMax M2 microplate reader. The signal obtained in wells containing cells cultivated in the absence of compound was set to 100% growth after subtracting the signal obtained in medium only wells. The % growth in each well was calculated by subtracting the medium only value and dividing through the 100% growth value. The IC50 for cell growth, the concentration of compound at which cell growth was reduced to 50%, was calculated with the GraFit6 software (Erythacus software).

SMILES | IC50 (MNK1) | IC50 [1] | further results
NC1CCN(Cc2ccc3cncc(-c4cc5ccccc5o4)c3c2)CC1 [Example 1, 1-[[4-(Benzofuran-2-yl)-6-isoquinolyl]methyl]piperidin-4-amine] | 110 nM | 3.54 µM | –
Nc1ccc(-c2cncc3ccc(CN4CCC(N)CC4)cc23)cc1 [Example 2] | 93 nM | 34.6 µM | –
Nc1cccc(-c2cncc3ccc(CN4CCC(N)CC4)cc23)c1 [Example 3] | 847 nM | 20.6 µM | –
N#Cc1cccc(-c2cncc3ccc(CN4CCC(N)CC4)cc23)c1 [Example 5] | – | 32.6 µM | inhibition at 1 µM (MNK1): 39%
NC1CCN(Cc2ccc3cncc(-c4ccccc4)c3c2)CC1 [Example 7] | 744 nM | 17.5 µM | –
N#Cc1ccccc1-c1cncc2ccc(CN3CCC(N)CC3)cc12 [Example 8] | – | – | inhibition at 10 µM (MNK1): 95%
NC1CCN(Cc2ccc3cncc(-c4cccc(Cl)c4)c3c2)CC1 [Example 10] | 325 nM | 11.7 µM | –
COC(=O)c1ccc(-c2cncc3ccc(CN4CCC(N)CC4)cc23)cc1 [Example 11] | – | 10.1 µM | inhibition at 1 µM (MNK1): 33%
COC(=O)c1cccc(-c2cncc3ccc(CN4CCC(N)CC4)cc23)c1 [Example 12] | – | – | inhibition at 10 µM (MNK1): 92%; inhibition at 100 µM [1]: 60%
NC1CCN(Cc2ccc3cncc(-c4ccncc4)c3c2)CC1 [Example 13] | 285 nM | 24.3 µM | –
NC1CCN(Cc2ccc3cncc(-c4cccnc4)c3c2)CC1 [Example 14] | – | – | inhibition at 1 µM (MNK1): 34%; inhibition at 50 µM [1]: 52%
NC1CCN(Cc2ccc3cncc(-c4ccccn4)c3c2)CC1 [Example 15] | 3960 nM | – | –
Nc1cc(-c2cncc3ccc(CN4CCC(N)CC4)cc23)ccn1 [Example 16] | 1910 nM | – | inhibition at 100 µM [1]: 67%
Nc1ccc(-c2cncc3ccc(CN4CCC(N)CC4)cc23)cn1 [Example 17] | – | – | inhibition at 10 µM (MNK1): 100%; inhibition at 50 µM [1]: 61%
CC(=O)Nc1cccc(-c2cncc3ccc(CN4CCC(N)CC4)cc23)c1 [Example 19] | – | 29.7 µM | inhibition at 1 µM (MNK1): 39%
NC(=O)c1ccc(-c2cncc3ccc(CN4CCC(N)CC4)cc23)cc1 [Example 20, 4-[6-[(4-Amino-1-piperidyl)methyl]-4-isoquinolyl]benzamide] | – | – | inhibition at 1 µM (MNK1): 45%; inhibition at 100 µM [1]: 62%

SMILES | IC50 (MNK1) | IC50 [1] | further results
NC(=O)c1cccc(-c2cncc3ccc(CN4CCC(N)CC4)cc23)c1 [Example 21] | – | – | inhibition at 1 µM (MNK1): 49%; inhibition at 100 µM [1]: 64%
O=C1CN(Cc2ccc3cncc(-c4ccc(O)cc4)c3c2)CCN1 [Example 22, 4-[[4-(4-Hydroxyphenyl)-6-isoquinolyl]methyl]piperazin-2-one] | 662 nM | – | inhibition at 100 µM [1]: 69%
Oc1ccc(-c2cncc3ccc(CN4CCC(O)CC4)cc23)cc1 [Example 23] | 2360 nM | 30.6 µM | –
NC1CCN(C(=O)c2ccc3cncc(-c4ccc(O)cc4)c3c2)CC1 [Example 28, (4-Amino-1-piperidyl)-[4-(4-hydroxyphenyl)-6-isoquinolyl]methanone] | 353 nM | 47.6 µM | –
NC1CCN(Cc2ccc3cncc(-c4ccc(C(=O)O)cc4)c3c2)CC1 [Example 29, 4-[6-[(4-Amino-1-piperidyl)methyl]-4-isoquinolyl]benzoic acid] | – | – | inhibition at 1 µM (MNK1): 43%
NC1CCN(Cc2ccc3cncc(-c4cccc(C(=O)O)c4)c3c2)CC1 [Example 30] | – | – | inhibition at 1 µM (MNK1): 34%
NC1CCN(Cc2ccc3cncc(-c4ccc(NC(=O)Nc5ccccc5)cc4)c3c2)CC1 [Example 31, 1-[4-[6-[(4-Amino-1-piperidyl)methyl]-4-isoquinolyl]phenyl]-3-phenyl-urea] | 484 nM | 2.19 µM | –
NCCCCNCc1ccc2cncc(-c3ccc(O)cc3)c2c1 [Example 35, 4-[6-[(4-Aminobutylamino)methyl]-4-isoquinolyl]phenol] | – | 11.8 µM | inhibition at 1 µM (MNK1): 56%
NC1CCC(NCc2ccc3cncc(-c4ccc(O)cc4)c3c2)CC1 (stereo not drawn) [Example 37] | 336 nM | – | inhibition at 50 µM [1]: 57%
Oc1ccc(-c2cncc3ccc(CNC4CCCNC4)cc23)cc1 (stereo not drawn) [Example 39] | 496 nM | – | –
COc1cc(NCc2ccc3cncc(-c4cc5ccccc5o4)c3c2)ccn1 [Example 65] | 157 nM | – | –
c1ccc2oc(-c3cncc4ccc(NC5CCNCC5)cc34)cc2c1 [Example 82] | – | 2.17 µM | –
O=c1[nH]cc(-c2cc3ccccc3o2)c2cc(NCc3ccncc3)ccc12 [Example 89, 4-(Benzofuran-2-yl)-6-(4-pyridylmethylamino)-2H-isoquinolin-1-one] | – | – | inhibition at 10 µM (MNK1): 35%
O=c1[nH]cc(-c2ccccc2)c2cc(NCc3ccncc3)ccc12 [Example 90] | 1060 nM | – | –
Nc1cc[n+](Cc2ccc3cnc(N)c(-c4cc5ccccc5o4)c3c2)cc1 [Example 166, 6-[(4-Aminopyridin-1-ium-1-yl)methyl]-4-(benzofuran-2-yl)isoquinolin-3-amine trifluoroacetate] | 57 nM | – | –

More lines, main results first:

IC50 (MNK1) | IC50 [1] | SMILES | further results
334 nM | 26 µM | N#Cc1ccc(-c2cncc3ccc(CN4CCC(N)CC4)cc23)cc1 [Example 4] | –
917 nM | 6.05 µM | NC1CCN(Cc2ccc3cncc(-c4cc5ccccc5[nH]4)c3c2)CC1 [Example 6] | –
258 nM | 10.8 µM | NC1CCN(Cc2ccc3cncc(-c4ccc(Cl)cc4)c3c2)CC1 [Example 9] | –
459 nM | 30.4 µM | CC(=O)Nc1ccc(-c2cncc3ccc(CN4CCC(N)CC4)cc23)cc1 [Example 18, N-[4-[6-[(4-Amino-1-piperidyl)methyl]-4-isoquinolyl]phenyl]acetamide] | –
926 nM | 45.5 µM | NCCNCc1ccc2cncc(-c3ccc(O)cc3)c2c1 [Example 24] | –
166 nM | 14.6 µM | NCCCNCc1ccc2cncc(-c3ccc(O)cc3)c2c1 [Example 25] | –
– | 54.3 µM | Oc1ccc(-c2cncc3ccc(CN4CCOCC4)cc23)cc1 [Example 26] | inhibition at 1 µM (MNK1): 40%
2410 nM | 8.4 µM | NC1CCN(Cc2ccc3cncc(-c4cccc(NC(=O)Nc5ccccc5)c4)c3c2)CC1 [Example 32] | –
866 nM | – | NC(=O)Nc1ccc(-c2cncc3ccc(CN4CCC(N)CC4)cc23)cc1 [Example 33, [4-[6-[(4-Amino-1-piperidyl)methyl]-4-isoquinolyl]phenyl]urea] | –
1090 nM | – | NC(=O)Nc1cccc(-c2cncc3ccc(CN4CCC(N)CC4)cc23)c1 [Example 34] | –
99 nM | 20.2 µM | CN(CCCN)Cc1ccc2cncc(-c3ccc(O)cc3)c2c1 [Example 36] | –
351 nM | 25 µM | NC1CCCC(NCc2ccc3cncc(-c4ccc(O)cc4)c3c2)C1 (stereo not drawn) [Example 38] | –
135 nM | – | c1cncc(NCc2ccc3cncc(-c4cc5ccccc5o4)c3c2)c1 [Example 60, N-[[4-(Benzofuran-2-yl)-6-isoquinolyl]methyl]pyridin-3-amine] | –
2140 nM | – | Clc1cc(NCc2ccc3cncc(-c4cc5ccccc5o4)c3c2)ccn1 [Example 62] | –
68 nM | – | Fc1cc(NCc2ccc3cncc(-c4cc5ccccc5o4)c3c2)ccn1 [Example 63] | –
– | 2.21 µM | N[C@H]1CC[C@@H](Nc2ccc3cncc(-c4cc5ccccc5o4)c3c2)CC1 [Example 81, N4-[4-(Benzofuran-2-yl)-6-isoquinolyl]cyclohexane-1,4-diamine] | –
171 nM | – | N[C@H]1CC[C@H](Nc2ccc3c(=O)[nH]cc(-c4ccccc4)c3c2)CC1 [Example 88] | –
24 nM | – | c1ccc2oc(-c3cncc4ccc(CNc5ccnnc5)cc34)cc2c1 [Example 131, N-[[4-(benzofuran-2-yl)-6-isoquinolyl]methyl]pyridazin-4-amine] | –
94 nM | – | Nc1ncc(-c2cc3ccccc3o2)c2cc(O[C@H]3CC[C@H](N)CC3)cc(Cl)c12 [Example 320] | –
